In brackets after ≈: the same amount, converted by molar mass. Like-named read-outs stand apart in the source and are kept apart here.
Tests used:
ICR strain mice = assay: Acute toxicity, gavage administration; type: in vivo, mouse (ICR strain); details: 2.5 g/kg twice a day, 14 days monitoring
Protocol: The acute toxicity tests were assessed for two administration routes, through gavage and subcutaneous injection.
Thus, the acute toxicity test was conducted in twenty ICR strain mice, weighing 18–20 g. The Sample was given through gavage at dosage of 2.5 g/kg, twice a day. Continuous monitoring was made for 14 days.

[1] = system: B16 mouse melanoma cell line; assay: In vitro anti-cancer efficacy, B16, SRB method, 48 hours; type: cell-based; details: for IC50 / IC90: Mus musculus; for IC50: read-out: B16 IC50; for IC90: read-out: B16 IC90
Protocol: (§1) The above compounds were dissolved in DMSO at stock concentration of 10 mg/ml and stored at 4° C. Before each experiment they were diluted to desired concentration with serum-free RPMI 1640 medium
2. B16 mouse melanoma cell line: B16 cells were maintained under the same condition as above. 2×10^4 cells/well were plated on 48-well plate and left for 12 hours for attachment. Cells were then treated with the test compounds and solvent control for 48 hours. Numbers of live cells were determined by SRB method. Briefly, cells were fixed with 50 μl/well 15% TCA for 1 hour, and then washed three times with double-distilled water. After drying 50 μl/well 1% SRB dye was added and reacted for 10 minutes. Plate was washed with 1% acetic acid. 0.2 ml Tris buffer (pH 9.6) was added and OD510 was recorded.
(§2) Reagents and Methods: same as in Experiment 1.

[2] = system: Mouse cervical carcinoma U14; assay: In vivo anti-cancer efficacy, solid tumor model; details: for Tumor W.: ± SD
Text: Mouse cervical carcinoma U14 model was used to compare in vivo anti-cancer efficacy of 15-methyl-2-hexadecenoic acid, 13-methyl-tetradecanoic acid and the chemotherapy drug cytoxan (CTX).
40 male ICR strain mice, weighing 19–22 g, were randomly divided into 4 groups of 10 each. U14 cervical carcinoma mass (about 2 mm^3 each) was transplanted subcutaneously into the right armpits of all animals following standard procedure. The test group was given 15-methyl-2-hexadecenoic acid and 13-methyl-tetradecanoic acid at 0.4 g/kg, respectively, intragastrically (i.g.) daily for 11 days. The positive control group was given a single dose of CTX i.g. (25 mg/kg) on day 1. Negative control group was given normal saline (N.S.) at 0.2 ml/10 g daily for 11 days. On the 12th day, all mice were sacrificed and the tumors were isolated and weighed. The tumor inhibition rate (TIR) was calculated and subject to t test.

[3] = system: K562 human leukemia cell line; assay: In vitro anti-cancer efficacy, K562, trypan blue dye exclusion, 48 hours; type: cell-based; details: for IC50 / IC90: Homo sapiens, K562; for IC50: read-out: K562 IC50; for IC90: read-out: K562 IC90
Protocol: as §1
1. K562 human leukemia cell line: K562 cells were maintained in RPMI 1640 medium with 5% fetal bovine serum at 37° C. under 5% CO2 atmosphere. 4×10^4 cells/well were plated on 96-well plate. After treatment with the test compounds and solvent control (DMSO) for 48 hours, numbers of live cells were counted by trypan blue dye exclusion.
as §2

[4] = system: human breast carcinoma MCF7ras; type: in vivo; details: for Body weight D1 / Body weight D23: MCF7ras nude mice; for Body weight D1: day 1 (baseline); for Body weight D1 / Tumor W.: X ± SD; for Body weight D23 / TIR (tumor inhibition rate, (C-T)/C percentage) / Tumor W.: day 23, test 400 mg/kg gavage daily, CTX 25 mg/kg
Protocol: Thirty female Balb/c-nu/nu athymic mice, 6 weeks old, weighing 18–22 g, were housed in specific pathogen free (SPF) condition throughout the course of the experiment.
Subcutaneous transplantation of human breast carcinoma MCF7ras was carried out under aseptic condition. Tumor mass was cut into fragments (approximately 0.18×0.18×0.20 mm in size), and injected s.c. into the right mammary fat pad of each animal with a trocar. The mice were randomized into control and test groups of ten mice each. The day after transplantation, the mice in the test group were given through gavage 13-methyl-2-tetradecenoic acid at 400 mg/kg daily. The mice in two control groups were administered with CTX at 25 mg/kg and N.S. at 0.2 ml/10 g. All animals were sacrificed on day 23. The body weights and tumor weights were measured. The tumor inhibition rates (TIR) were determined by comparing the mean tumor weight of the test groups (T) with that of the control group (C) and expressed as a (C-T)/C percentage, and were analyzed by Student's test for statistical significance.

Delayed Hypersensitivity = assay: Delayed hypersensitivity (sheep RBC); type: in vivo, mouse (ICR strain)
Protocol: 50 female ICR strain mice, weighing 18–21 g, were randomly divided into 5 groups of 10 each. The method of administration in each group was the same as above phagocytic function). However, on the 5th day after administration, each mouse was injected with 50 μl 10% sheep RBC suspension through tail vein. 4 days later (day 9), each mouse was injected intradermally with 20 μl 10 sheep RBC suspension or normal saline into metatarus of the left or right hind limbs, respectively. The digital thickness of each mouse was measured 24 hours later, and the difference in thickness between left and right digits was subject to t test analysis.

[5] = system: Phagocytic Function of Reticuloendothelial System; type: in vivo, mouse (ICR strain)
Protocol: 50 female ICR strain mice, weighing 19–24 g, were randomly divided into 5 groups of 10 each. One group was given N.S. at 20 ml/kg i.g. as a normal control. A positive control group was given CTX i.g. at 25 mg/kg on day 1 and 6. A third group was given N-(13-methyl-tetradecanoyl)-4amino-1,2-benzenediol (Sample) only at 400 mg/kg i. g. The remaining two groups were given both CTX (25 mg/kg on day 1 and 6) and Sample (100 mg/kg and 400 mg/kg, respectively). All treatments except CTX were administered daily for 9 days. 30 minutes after the last administration, 0.15 ml Yidege (1:10) was injected into the tail vein of each mouse. 1 minute and 5 minutes after, blood was drawn and 20 μl serum was mixed with 0.1% […]. OD680 was measured and the clearance index K=(1 gOD1–1 gOD2)/(t2−t1) was calculated.

Serum Hemolysinogenesis = type: in vivo, mouse (ICR strain)
Protocol: 50 male ICR strain mice, weighing 20–23 g, were randomly divided into 5 groups of 10 each. The method of administration in each group was the same as above phagocytic function). However, on the 6th day after administration, 0.2 ml 3:5 (VN) sheep red blood cell (RBC) suspension was injected i.p. into each mouse. 4 days later (day 10), blood was drawn from all animals and serum was prepared and then diluted 600 times. 1 ml diluted serum was mixed with 0.5 ml 10% sheep RBC suspension. N.S. was used as blank control. All samples were incubated at 37° C. for 30 minutes, and centrifuged (2000 rev/min) for 5 minutes. The supernatant was collected for measurement of OD540 and HC50 was calculated.

[6] = type: in vivo, mouse (ICR strain); details: single agent i.g.: Sample (N-(13-methyl-tetradecanoyl)-4-amino-1,2-benzenediol) 0.4 g/kg; CTX 25 mg/kg
Text: The mice were sacrificed after delayed hypersensitivity test above and the thymus and […] were collected and weighed.

HAC cells = type: in vivo; details: for Body Weight after treatment / Extension Rate (of life span) / Survival Time: test 0.4 g/kg i.g. daily till death, 5-FU 25 mg/kg i.g. day 1, 3, 5
Protocol: 30 female ICR strain mice, weighing 18–21 g, were randomly divided into 3 groups of 10 each. 0.2 ml of HAC cell suspension (10^7 cells/ml) was injected intraperitoneally (i.p.) into all animals. The test group was given 2-(12-Methyl-tridecyl)-5-mercapto-1,3,4-thiadiazole at 0.4 g/kg i.g. daily till death. The positive control group was given 5-Flurouracil (5-Fu) i.g. at 25 mg/kg on day 1, 3, and 5. The negative control group was given N.S. at 20 ml/kg daily as in test groups. The length of survival of each group was recorded and rate of extension of life span was calculated and subject to t test.

[7] = Table 2, unit inferred, methods same as in Experiment 1
[8] = day 12, test compounds 0.4 g/kg i.g. daily 11 days, CTX 25 mg/kg i.g. single dose
[9] = single agent i.g.: Sample (N-(13-methyl-tetradecanoyl)-4-amino-1,2-benzenediol) 0.4 g/kg, CTX 25 mg/kg, X ± SD

15-Methyl-2-hexadecanoic acid [Compound 29]
observation after gavage (ICR strain mice): No major anomaly was observed | LD50 (ICR strain mice; mice): > 5 g/kg | B16 IC50 [1, 7]: 6.8 µg/mL | B16 IC90 [1, 7]: 10.5 µg/mL | TIR (tumor inhibition rate) [2, 8]: 81.0% | Tumor W. [2, 8]: 0.50 ± 0.29 g | Body W. D1 ([2]; mouse, in vivo): 20.6 ± 0.7 g | K562 IC50 [3, 7]: 10.1 µg/mL | K562 IC90 [3, 7]: 17.7 µg/mL

CC(C)CCCCCCCCCC=CC(=O)O [13-methyl-2-tetradecenoic acid]
Body weight D1 [4]: 20.3 ± 0.5 g | Body weight D23 [4]: 24.4 ± 1.1 g | TIR (tumor inhibition rate, (C-T)/C percentage) [4]: 74.3% | Tumor W. [4]: 0.47 ± 0.31 g

O=P1(N(CCCl)CCCl)NCCCO1 (centres unmarked) [CTX, cytoxan, reference compound]
Difference in thickness between left and right palm (Delayed Hypersensitivity; [9]): 1.25 ± 0.48 mm | Body W. D1 ([2]; U14 mice, day 1 (baseline), X ± SD): 20.6 ± 0.5 g | Body W. D12 ([2]; U14 mice, day 12, test compounds 0.4 g/kg i.g. daily 11 days, CTX 25 mg/kg i.g. single dose): 22.6 ± 1.2 g | TIR (tumor inhibition rate) [2, 8]: 82.5% | Tumor W. [2, 8]: 0.46 ± 0.17 g | K (clearance index of carbon grain) ([5]; single agent i.g.: Sample (N-(13-methyl-tetradecanoyl)-4-amino-1,2-benzenediol) 400 mg/kg daily 9 days, CTX 25 mg/kg day 1 and 6, X ± SD): 0.0238 ± 0.0161 | HC50 (Serum Hemolysinogenesis; [9]): 22.51 ± 4.30 | Body weight D1 [4]: 20.4 ± 0.4 g | Body weight D23 [4]: 18.6 ± 0.2 g | TIR (tumor inhibition rate, (C-T)/C percentage) [4]: 76.5% | Tumor W. [4]: 0.43 ± 0.15 g | Indices of pancreas [6]: 2.287 ± 1.023 mg/10 g avoirdupois | Indices of thymus [6]: 1.387 ± 0.701 mg/10 g avoirdupois

CC(C)CCCCCCCCCCCC(=O)Nc1ccc(O)c(O)c1 [Compound 1, N-(3,4-Dihydroxyphenyl)-13-methyl tetradecanamide]
IC50 ([1]; Table 1, 48 hours): 5.12 µg/mL (≈ 14.6 µM) | IC90 ([1]; Table 1, 48 hours): 9.28 µg/mL (≈ 26.6 µM) | inhibitory effect to the delayed hypersensitivity of both normal and CTX-treated mice (Delayed Hypersensitivity; in words): no inhibitory effect | effect on the Clearance Index of Carbon grain in normal mouse ([5]; 400 mg/kg i.g., in words): no obvious effect | IC50 ([3]; Table 1, 48 hours): 4.98 µg/mL (≈ 14.2 µM) | IC90 ([3]; Table 1, 48 hours): 10.1 µg/mL (≈ 28.9 µM) | effects on serum hemolysinogenesis in either normal or immune-compromised mouse (Serum Hemolysinogenesis; in words): no obvious effects

O=c1[nH]cc(F)c(=O)[nH]1 [Compound 5-FU, 5-Flurouracil, reference compound]
Body Weight after treatment (HAC cells; HAC mice): 43.4 ± 12.8 g | Extension Rate (of life span) (HAC cells; HAC mice): 47.4% | Survival Time (HAC cells; HAC mice, X ± SD): 14.3 ± 1.5 days | Body Weight before treatment (HAC cells; mouse, in vivo): 19.5 ± 1.2 g

CC(C)CCCCCCCCCCCc1nnc(S)s1 [Compound 30, 2-(12-Methyl-tridecyl)-5-mercapto-1,3,4-thiadazole]
B16 IC50 ([1]; Table 1, 48 hours): 5.16 µg/mL | B16 IC90 ([1]; Table 1, 48 hours): 8.05 µg/mL | Body Weight before treatment (HAC cells; HAC mice, X ± SD): 19.6 ± 1.3 g | Body Weight after treatment (HAC cells; HAC mice): 46.5 ± 6.1 g | Extension Rate (of life span) (HAC cells; HAC mice): 72.2% | Survival Time (HAC cells; HAC mice, X ± SD): 16.7 ± 1.8 days | K562 IC50 ([3]; Table 1, 48 hours): 6.10 µg/mL | K562 IC90 ([3]; Table 1, 48 hours): 8.75 µg/mL

CC(C)(C)CCCCCCCCCCCC(=O)O [Compound 31, 13,13-Dimethyl-tetradecanoic acid]
IC50 ([1]; Table 1, 48 hours): 20.4 µg/mL (≈ 79.6 µM) | IC90 ([1]; Table 1, 48 hours): 35.6 µg/mL (≈ 139 µM) | IC50 ([3]; Table 1, 48 hours): 24.6 µg/mL (≈ 95.9 µM) | IC90 ([3]; Table 1, 48 hours): 37.5 µg/mL (≈ 146 µM) | melting point: 37 to 39 °C
